Source: patent US20240174690A1, “ANNULATED 2-AMINO-3-CYANO THIOPHENES AND DERIVATIVES FOR THE TREATMENT OF CANCER” (BOEHRINGER INGELHEIM INTERNATIONAL GMBH, priority 2021, published 2024)

How the values were obtained:
Assay type in all cases: cell-based
[1] = tested on: KRAS G12D-dependent Ba/F3 cells; assay: Ba/F3 proliferation assay, KRAS G12D; details: Mus musculus, BaF3, 72 h, AlamarBlue
Description: Plasmids containing KRASG12 mutants (i.e. […], G12C, G12V) are obtained from GeneScript. To generate KRASG12-dependent Ba/F3 models, Ba/F3 cells are transduced with retroviruses containing vectors that harbor KRASG12 isoforms. Platinum-E cells (Cell Biolabs) are used for retrovirus packaging. Retrovirus is added to Ba/F3 cells. To ensure infection, 4 μg/mL polybrene is added and cells are spinfected. […] Cells with an infection efficiency of 10% to 20% are further cultivated and puromycin selection with 1 μg/mL is initiated. As a control, parental Ba/F3 cells are used to show selection status. Selection is considered successful when parental Ba/F3 cells cultures died. To evaluate the transforming potential of KRASG12 mutations, the growth medium is no longer supplemented with IL-3. Ba/F3 cells harboring the empty vector are used as a control. Approximately ten days before conducting the experiments, puromycin is left out.
Compounds are added using an Access Labcyte Workstation with a Labcyte Echo 550 or 555 accoustic dispenser. All treatments are performed in technical duplicates. […] AlamarBlue™ (ThermoFisher), a viability stain, is added and fluorescence measured in the PerkinElmer Envision HTS Multilabel Reader. The raw data are imported into and analyzed with the Boehringer Ingelheim proprietary software MegaLab (curve fitting based on the program PRISM, GraphPad Inc.).

[2] = tested on: AsPC-1 cells; assay: AsPC-1 CTG proliferation assay (120 h) (pancreatic cancer, G12D); details: Homo sapiens, ASPC1
Description: AsPC-1 CTG Proliferation Assay (120 h) (Pancreatic Cancer, G12D)
The CTG assay is designed to measure quantitatively the proliferation of AsPC-1 cells (ATCC […]), using the CellTiter Glow Assay Kit (Promega G7571). Cells are grown in RPMI medium (ATCC) supplemented with Fetal Calf Serum (Life Technologies, Gibco BRL, Cat. No. 10270-106). On “day 0” 2000 AsPC-1 cells are seeded in 60 μL RPMI ATCC+10% FCS+Penstrep in a 384-well plate, flat and clear bottom (Greiner, PNr. 781091). Cells are then incubated in the plates at 37° C. in a CO2 incubator overnight. On day 1, compounds (10 mM stock in DMSO) are added with the ECHO acoustic liquid handler system (Beckman Coulter), including DMSO controls. Plates are incubated for 120 h, and cell viability is measured using CellTiter-Glo luminescent cell viability reagent (Promega product code G7570). Viability (stated as percent of control) is defined as relative luminescence units RLU of each well divided by the RLU of cells in DMSO controls. IC50 values are determined from viability measurements by non-linear regression using a four-parameter model.

[3] = tested on: LOVO cells; assay: LOVO CTG proliferation assay (120 h) (CRC, G13D); details: Homo sapiens, CTG 120 h
Description: LOVO CTG Proliferation Assay (120 h) (CRC, G13D)
LOVO cells (ATCC CCL-229) are dispensed into 384-well plates, flat and clear bottom (Greiner, PNr. 781091) at a density of 1000 cells per well in 60 μL DMEM (Sigma D6429)+10% Fetal Calf Serum (HyClone, PNr.: SH30084.03) and incubated at 37° C. in a CO2 incubator overnight. The next day, compounds (10 mM stock in DMSO) are added with the ECHO acoustic liquid handler system (Beckman Coulter), including DMSO controls. Plates are incubated for 120 h, and cell viability is measured using CellTiter-Glo luminescent cell viability reagent (Promega product code G7570). Viability (stated as percent of control) is defined as relative luminescence units RLU of each well divided by the RLU of cells in DMSO controls. IC50 values are determined from viability measurements by non-linear regression using a four-parameter model.

IC50 [1] [µM]	IC50 [2] [µM]	IC50 [3] [µM]	SMILES
0.081	3.21	0.319	C[C@H](Oc1cc(-c2cnn(C)c2)nc(-c2noc3c2CCC[C@@]32CCCc3sc(N)c(C#N)c32)n1)[C@@H]1CCCN1C [II-74]
0.12	3.92	0.467	C[C@H](Oc1cc(-n2cccc3cnnc2-3)nc(-c2noc3c2CCC[C@@]32CCCc3sc(N)c(C#N)c32)n1)[C@@H]1CCCN1C [II-92]
0.045	2.83	0.106	Cc1nccn1-c1cc(O[C@@H](C)[C@@H]2CCCN2C)nc(-c2noc3c2CCC[C@@]32CCCc3sc(N)c(C#N)c32)n1 [II-79]
0.065	2.26	0.136	CO[C@@H]1C[C@@H]([C@H](C)Oc2cc(-c3ccn(C)n3)nc(-c3noc4c3CCC[C@@]43CCCc4sc(N)c(C#N)c43)n2)N(C)C1 [II-91]
0.036	1.66	0.058	C[C@H](Oc1cc(-c2ccn(C[C@@H](C)O)n2)nc(-c2noc3c2CCC[C@@]32CCCc3sc(N)c(C#N)c32)n1)[C@@H]1CCCN1C [II-117]
0.003	0.086	1.64	C[C@H](Oc1cc(N2CCNC3(CC3)C2)nc(-c2onc3c2CCC[C@@]32CCCc3sc(N)c(C#N)c32)n1)[C@@H]1CCCN1C [I-5]
0.15	3.06	0.427	C[C@H](Oc1cc(-c2cn[nH]c2)nc(-c2noc3c2CCC[C@@]32CCCc3sc(N)c(C#N)c32)n1)[C@@H]1CCCN1C [II-87]
0.08	3.83	0.076	C[C@H](Oc1cc(-c2ccn(C3COC3)n2)nc(-c2noc3c2CCC[C@@]32CCCc3sc(N)c(C#N)c32)n1)[C@@H]1CCCN1C [II-109]
0.037	0.903	0.772	C[C@H](Oc1cc(N2CCNC[C@@]23CCOC3)nc(-c2noc3c2CCC[C@@]32CCCc3sc(N)c(C#N)c32)n1)[C@@H]1CCCN1C [II-51]
0.039	0.783	0.055	C[C@H](Oc1cc(N2CCCC3(COC3)C2)nc(-c2noc3c2CCC[C@@]32CCCc3sc(N)c(C#N)c32)n1)[C@@H]1CCCN1C [II-72]
0.106	2.01	0.123	C[C@H](Oc1cc(-n2cc(Cn3ccnc3)nn2)nc(-c2noc3c2CCC[C@@]32CCCc3sc(N)c(C#N)c32)n1)[C@@H]1CCCN1C [II-113]
0.041	5.08	0.561	C[C@H](Oc1cc(-c2cncs2)nc(-c2noc3c2CCC[C@@]32CCCc3sc(N)c(C#N)c32)n1)[C@@H]1CCCN1C [II-80]
0.042	2.25	0.058	C[C@H](O)Cn1ccc(-c2cc(O[C@@H](C)[C@@H]3CCCN3C)nc(-c3noc4c3CCC[C@@]43CCCc4sc(N)c(C#N)c43)n2)n1 [II-112]
0.198	2.36	0.683	C[C@H](Oc1cc(-c2cccc(CO)c2)nc(-c2noc3c2CCC[C@@]32CCCc3sc(N)c(C#N)c32)n1)[C@@H]1CCCN1C [II-97]
0.019	7.27	1.01	CO[C@@H]1C[C@@H]([C@H](C)Oc2cc(-c3ccn(C4COC4)n3)nc(-c3noc4c3CCC[C@@]43CCCc4sc(N)c(C#N)c43)n2)N(C)C1 [II-107]
0.047	1.94	0.077	C[C@H](Oc1cc(-n2cncn2)nc(-c2noc3c2CCC[C@@]32CCCc3sc(N)c(C#N)c32)n1)[C@@H]1CCCN1C [II-70]
0.016	1.81	0.25	C[C@H](Oc1cc(N2CCCC2=O)nc(-c2noc3c2CCC[C@@]32CCCc3sc(N)c(C#N)c32)n1)[C@@H]1CCCN1C [II-73]
0.051	2.82	0.092	C[C@H](Oc1cc(-n2ccc(Br)n2)nc(-c2noc3c2CCC[C@@]32CCCc3sc(N)c(C#N)c32)n1)[C@@H]1CCCN1C [II-110]

IC50 [1] [µM]	IC50 [2] [µM]	IC50 [3] [µM]	SMILES
0.039	9.19	2.32	CO[C@@H]1C[C@@H]([C@H](C)Oc2cc(-c3cnn(C)n3)nc(-c3noc4c3CCC[C@@]43CCCc4sc(N)c(C#N)c43)n2)N(C)C1 [II-62]
0.058	2.1	0.128	C[C@H](Oc1cc(-n2cc(Cn3cncn3)nn2)nc(-c2noc3c2CCC[C@@]32CCCc3sc(N)c(C#N)c32)n1)[C@@H]1CCCN1C [II-124]
0.072	1.29	0.209	C[C@H](Oc1cc(-c2ccccn2)nc(-c2noc3c2CCC[C@@]32CCCc3sc(N)c(C#N)c32)n1)[C@@H]1CCCN1C [II-85]
0.043	4.65	0.136	C[C@H](Oc1cc(-n2ccnc2Cl)nc(-c2noc3c2CCC[C@@]32CCCc3sc(N)c(C#N)c32)n1)[C@@H]1CCCN1C [II-93]
0.041	1.67	0.05	C[C@H](Oc1cc(-c2cc[nH]n2)nc(-c2noc3c2CCC[C@@]32CCCc3sc(N)c(C#N)c32)n1)[C@@H]1CCCN1C [II-71]
0.057	0.825	0.495	C[C@H](Oc1cc(-n2cc3c(n2)CCNC3)nc(-c2noc3c2CCC[C@@]32CCCc3sc(N)c(C#N)c32)n1)[C@@H]1CCCN1C [II-53]
0.011	1.07	0.096	C[C@H](Oc1cc(N2CCNC2=O)nc(-c2noc3c2CCC[C@@]32CCCc3sc(N)c(C#N)c32)n1)[C@@H]1CCCN1C [II-64]
0.045	6.42	0.113	CO[C@@H]1C[C@@H]([C@H](C)Oc2cc(-n3ccnc3)nc(-c3noc4c3CCC[C@@]43CCCc4sc(N)c(C#N)c43)n2)N(C)C1 [II-58]
0.19	2.37	2.81	C[C@H]1CN(C)CCCN1c1cc(N2CCN(C)CC2)nc(-c2onc3c2CCC[C@@]32CCCc3sc(N)c(C#N)c32)n1 [I-7]
0.014	2.77	0.076	C[C@H](Oc1cc(-n2ccc(C#N)n2)nc(-c2noc3c2CCC[C@@]32CCCc3sc(N)c(C#N)c32)n1)[C@@H]1CCCN1C [II-102]
0.014	1.7	1.22	C[C@H](Oc1cc(N2C[C@H](C)N[C@@H](C)C2)nc(-c2onc3c2CCC[C@@]32CCCc3sc(N)c(C#N)c32)n1)[C@@H]1CCCN1C [I-6]
0.046	2.81	0.309	C[C@H](Oc1cc(-c2cnsc2)nc(-c2noc3c2CCC[C@@]32CCCc3sc(N)c(C#N)c32)n1)[C@@H]1CCCN1C [II-111]
0.055	1.55	0.276	C[C@H](Oc1cc(N2CCOC3(CC3)C2)nc(-c2noc3c2CCC[C@@]32CCCc3sc(N)c(C#N)c32)n1)[C@@H]1CCCN1C [II-61]
0.103	4.86	0.289	CC(=O)N1CC=C(c2cc(O[C@@H](C)[C@@H]3CCCN3C)nc(-c3noc4c3CCC[C@@]43CCCc4sc(N)c(C#N)c43)n2)CC1 [II-81]
0.03	6.52	0.008	C[C@H](Oc1cc(-n2ccncc2=O)nc(-c2noc3c2CCC[C@@]32CCCc3sc(N)c(C#N)c32)n1)[C@@H]1CCCN1C [II-116]
0.133	3.17	0.295	C[C@H](Oc1cc(-n2cc(C3CC3)nn2)nc(-c2noc3c2CCC[C@@]32CCCc3sc(N)c(C#N)c32)n1)[C@@H]1CCCN1C [II-118]
0.266	3.29	0.64	C[C@H](Oc1cc(N2Cc3cnn(C)c3C2)nc(-c2noc3c2CCC[C@@]32CCCc3sc(N)c(C#N)c32)n1)[C@@H]1CCCN1C [II-63]
